From patent US20120232069A1, “PROCESS FOR PREPARING EFAVIRENZ POLYMORPH” (HETERO RESEARCH FOUNDATION, priority 2008, published 2012) come the findings set out here.

This data set is described as follows: Hygroscopicity: increase of water content on storage at 25° C. under relative humidity of 60%. The data set is classed as physicochemical. As to conditions: six months. How it is done:
Thus, for example, water content of crystalline form H1 produced according to the present invention is increased by 0.2% in six months at the temperature of 25° C. under relative humidity of 60%. Crystalline form H1 obtained according to the present invention typically has the water content of 2.5-8% by weight of the product obtained, more preferably 3-7% by weight, still more preferably 4-6% by weight as determined by Karl fisher method.

As for `O=C1Nc2ccc(Cl)cc2[C@@](C#CC2CC2)(C(F)(F)F)O1` [crystalline form H1 disclosed in WO 2006/018853] [(4S)-6-chloro-4-(cyclopropylethynyl)-1,4-dihydro-4-(trifluoromethyl)-2H-3,1-benzoxazin-2-one], the “increase of water content on storage” value is recorded as 2.37%.

For `O=C1Nc2ccc(Cl)cc2[C@@](C#CC2CC2)(C(F)(F)F)O1` [crystalline form H1 produced according to the present invent] [(4S)-6-chloro-4-(cyclopropylethynyl)-1,4-dihydro-4-(trifluoromethyl)-2H-3,1-benzoxazin-2-one], the “increase of water content on storage” value stood at 0.2%.
